Reference: article PMC5438914 (SLAS discovery, 2016)
Read-outs that look alike come from different tables or passages of the source.

Key:
S. aureus = test: time-kill experiments; settings: 4× MIC; for bacteriostatic or bactericidal: 0 to 24 h
[1] = system: human embryonic kidney 293 cells (HEK-293)
H. influenzae = test: time-kill experiments; settings: 4× MIC; for bacteriostatic or bactericidal: 0 to 24 h
[2] = system: EF-Tu, EF-Ts, EF-G, and PheRS; test: specificity assays against the accessory proteins of the A/T system; type: biochemical, Pseudomonas aeruginosa; settings: tested against each of the four accessory proteins
[3] = system: human embryonic kidney 293 cells (HEK-293); test: MTT cytotoxicity test; settings: HEK-293, MTT, 24 h
PheRS [4] = target: T1, PheRS (Pseudomonas aeruginosa, UniProt Q9I0A3+Q9I0A4); test: competition assays with PheRS substrates ATP and Phe; type: biochemical; settings: IC50 at ATP 25-1000 µM or Phe 25-300 µM; data not shown
[5] = target: T2, human mitochondrial PheRS (hmPheRS) (Homo sapiens, UniProt O95363); test: hmPheRS aminoacylation assay; type: biochemical; settings: 0.4 to 200 µM; at high concentrations
T2 sequence (O95363 1-451): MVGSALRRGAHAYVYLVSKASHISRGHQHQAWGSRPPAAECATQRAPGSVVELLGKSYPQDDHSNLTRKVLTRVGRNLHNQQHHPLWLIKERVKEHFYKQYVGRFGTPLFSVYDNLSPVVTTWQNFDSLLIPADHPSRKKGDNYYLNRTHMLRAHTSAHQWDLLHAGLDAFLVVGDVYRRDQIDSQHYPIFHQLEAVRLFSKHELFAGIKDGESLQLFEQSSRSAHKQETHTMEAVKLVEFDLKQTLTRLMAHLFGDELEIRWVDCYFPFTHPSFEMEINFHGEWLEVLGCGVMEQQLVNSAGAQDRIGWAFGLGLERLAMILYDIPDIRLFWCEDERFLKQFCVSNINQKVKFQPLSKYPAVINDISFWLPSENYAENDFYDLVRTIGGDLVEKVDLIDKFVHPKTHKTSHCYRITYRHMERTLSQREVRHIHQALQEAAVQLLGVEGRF

PheRS [6] = target: T1, PheRS; test: tRNA aminoacylation assay; type: biochemical
[7] = system: eukaryotic protein synthesis in wheat germ cell extract; test: wheat germ cell extract poly-Phe protein synthesis assay; type: biochemical; settings: at 30 µM

T1 sequence (Q9I0A3 whole entry): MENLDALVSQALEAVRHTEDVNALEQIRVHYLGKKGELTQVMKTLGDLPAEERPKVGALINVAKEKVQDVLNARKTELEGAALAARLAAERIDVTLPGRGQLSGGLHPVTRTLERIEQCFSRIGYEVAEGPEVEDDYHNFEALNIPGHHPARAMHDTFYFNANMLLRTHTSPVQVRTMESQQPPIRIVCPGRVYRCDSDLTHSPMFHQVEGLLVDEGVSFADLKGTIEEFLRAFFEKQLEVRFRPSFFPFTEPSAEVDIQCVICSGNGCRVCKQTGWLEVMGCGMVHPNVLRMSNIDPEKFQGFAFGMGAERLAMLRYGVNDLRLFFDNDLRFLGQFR
T1 sequence (Q9I0A4 whole entry): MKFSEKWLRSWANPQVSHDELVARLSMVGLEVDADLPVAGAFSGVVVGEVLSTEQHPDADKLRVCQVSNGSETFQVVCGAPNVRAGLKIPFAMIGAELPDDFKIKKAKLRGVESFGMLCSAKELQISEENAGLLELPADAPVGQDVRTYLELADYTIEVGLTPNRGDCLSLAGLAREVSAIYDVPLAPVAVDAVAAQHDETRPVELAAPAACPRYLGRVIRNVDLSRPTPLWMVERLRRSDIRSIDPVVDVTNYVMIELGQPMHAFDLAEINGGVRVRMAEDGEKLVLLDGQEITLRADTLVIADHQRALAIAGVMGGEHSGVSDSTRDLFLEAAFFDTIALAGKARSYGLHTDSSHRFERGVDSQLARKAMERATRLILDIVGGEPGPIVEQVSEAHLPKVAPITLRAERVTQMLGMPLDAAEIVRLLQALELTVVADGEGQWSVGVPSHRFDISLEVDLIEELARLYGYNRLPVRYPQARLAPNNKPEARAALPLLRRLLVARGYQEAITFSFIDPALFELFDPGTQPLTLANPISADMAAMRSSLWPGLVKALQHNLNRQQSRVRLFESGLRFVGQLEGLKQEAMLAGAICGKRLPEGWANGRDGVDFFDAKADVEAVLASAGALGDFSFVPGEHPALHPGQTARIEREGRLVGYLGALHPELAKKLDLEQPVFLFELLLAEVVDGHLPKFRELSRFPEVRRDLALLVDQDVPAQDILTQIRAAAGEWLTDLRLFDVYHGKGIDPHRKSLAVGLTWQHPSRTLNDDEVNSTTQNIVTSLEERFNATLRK

N=C(N)NN=C(/C=C/c1ccc([N+](=O)[O-])o1)/C=C/c1ccc([N+](=O)[O-])o1 [BT06D07, difurazone]
bacteriostatic or bactericidal (S. aureus): bactericidal
growth in time-kill cultures (S. aureus; up to 24 h): inhibited the growth of both bacteria completely during all times tested
IC50 (or CC50) for inhibition of cell growth [1]: > 400 µg/mL
bacteriostatic or bactericidal (H. influenzae): bactericidal
growth in time-kill cultures (H. influenzae; up to 24 h): inhibited the growth of both bacteria completely during all times tested
specificity for a single component of the A/T assay [2]: did not inhibit an accessory protein

O=C(N/N=C/c1ccc([N+](=O)[O-])o1)c1cc([N+](=O)[O-])cc([N+](=O)[O-])c1O [BT06G06, nifursol]
bacteriostatic or bactericidal (S. aureus): bacteriostatic
decrease in colony-forming units (CFU) compared with the control (S. aureus; during the first 6 h): 2 to 4 log10
bacteriostatic or bactericidal (H. influenzae): bacteriostatic
decrease in colony-forming units (CFU) compared with the control (H. influenzae; during the first 6 h): 2 to 4 log10
IC50 (or CC50) for inhibition of cell growth [3]: 18.5 µg/mL
mechanism of inhibition with respect to ATP and Phe (PheRS [4]): noncompetitive with both of the natural substrates
effect on the activity of hmPheRS [5]: only modestly affected
IC50 (PheRS [6]): 60.5 µM
specificity for a single component of the A/T assay [2]: specifically inhibit PheRS

C[C@@H]1C[C@@H]([C@H](O)CC2CC(=O)NC(=O)C2)C(=O)[C@@H](C)C1 [cycloheximide]
inhibition of protein synthesis [7]: greater than 80%
